Laboratory results from patent US9617216B2, “Antifungal oxodihydropyridinecarbohydrazide derivative” (Daewoong Pharmaceutical Co., Ltd., priority 2013, dated 2017).
≈ marks a conversion by molar mass, not a printed value.

Legend:
Type in all cases: cell-based
Candida albicans [1] = experiment: In vitro fungicidal activity test (MFC, minimum fungicidal concentration); details: minimum concentration with no fungal growth, Sabouraud dextrose agar plate, 35° C., 48 hours, naked eye; for MFC: Candida albicans
Experimental: As samples of fungicidal agents, 10 mM stock solutions were diluted 10-fold by adding with RPMI 1640 medium, followed by a 5-fold serial dilution, and used as the highest concentration for evaluation of antifungal activity (MIC). The samples with the highest concentration of the fungicidal agents were treated with a 2-fold serial dilution into 11 different concentrations, and the final concentrations were determined by mixing with the strains at a 1:1 ratio. In particular, the concentration of dimethylsulfoxide used as an excipient was made to a final 1% (VN). The evaluations of the fungicidal activity of Candida albicans were performed using a test plate already completed of antifungal activity, from the highest concentration of a given sample to the concentration right next to the concentration determined to be MIC. Test solutions at each concentration were pipetted about 5 times, all were collected (about a total of 225 μL), and added into a 12-well Sabouraud dextrose agar plate.

Candida albicans [2] = experiment: In vitro antifungal activity test (MIC), Candida albicans; details: concentration at which growth is inhibited by 80% vs negative control, 35° C., 24 hours, RPMI 1640, alama blue; for MIC80: Candida albicans
Experimental: (§1) The antifungal activities of the compounds of the present invention were evaluated using Candida albicans as yeast fungus, and Aspergillus fumigatus as a filamentous fungus. The above fungi used were all purchased from American Type Culture Collection (ATCC). The strains used in the experiment were inoculated into a Sabouraud dextrose agar medium, and then cultured at 35° C. for a sufficient period of time, e.g., 24 hours for Candida albicans, and about 7 days for Aspergillus fumigatus. As for Candida albicans, about 5 to 7 single colonies were taken from the cultured medium, sufficiently suspended in 1 ml of 0.85% sterile saline solution, and adjusted to have an optical density of 0.095 to 0.107 at 530 nm. A preparation of a strain diluent was diluted in Roswell park memorial institute (RPMI) 1640 medium at a 1:10 ratio, and the resultant was diluted again at a 1:100 ratio to obtain an inoculation preparation for Candida albicans with a concentration of 1.0×10^3 to 5.0×10^3 CFU/mL. As for Aspergillus fumigatus, the cultured Sabouraud dextrose agar was added with 1 mL of 0.2% Tween 20 diluted with 0.85% sterile saline solution, and then the plate was shaken to detach conidium from the plate. The solution collected from the plate surface was transferred into a sterile tube, and placed at room temperature for 5 minutes to deposit heavy substances. The resulting supernatant was transferred into the sterile tube, sufficiently suspended for about 15 seconds, and prepared a strain diluent with a concentration of 0.4×10^6 to 5.0×10^6 CFU/mL using a hemocytometer. The thus prepared strain diluent was diluted in RPMI 1640 medium at a 1:100 ratio to obtain an inoculation preparation for Aspergillus fumigatus. Candida albicans was cultured at 35° C. for 24 hours and Aspergillus fumigatus was cultured at 35° C. for 48 hours, and the concentrations, at which growth is inhibited by 80% or 50% compared to a negative control group, were determined using alama blue color developing reagent. All experiments were repeated twice for each concentration, and the results of antifungal activities (MIC80 MIC50 μg/mL) are shown in Tables 1 to 2.

Aspergillus fumigatus = experiment: In vitro antifungal activity test (MIC), Aspergillus fumigatus; details: concentration at which growth is inhibited by 50% vs negative control, 35° C., 48 hours, RPMI 1640, alama blue; for MIC50: Aspergillus fumigatus
Experimental: as §1

| SMILES | MIC80 (Candida albicans [2]) [µg/mL] | MIC50 (Aspergillus fumigatus) [µg/mL] | MFC (Candida albicans [1]) [µg/mL] | Aspergillus fumigatus MIC50 (Aspergillus fumigatus) [µg/mL] | Candida albicans MFC (Candida albicans [1]) [µg/mL] | Candida albicans MIC80 (Candida albicans [2]) [µg/mL] |
| --- | --- | --- | --- | --- | --- | --- |
| Cn1cc(C(=O)NNc2cccc(F)c2)ccc1=O [Example 2, N′-(3-fluorophenyl)-1-methyl-6-oxo-1,6-dihydropyridine-3-carbohydrazide] | 0.02 (≈ 0.0766 µM) | – | 0.1 (≈ 0.383 µM) | – | – | – |
| Cn1cc(C(=O)NNc2cc(F)cc(F)c2)ccc1=O [Example 13, N′-(3,5-difluorophenyl)-1-methyl-6-oxo-1,6-dihydropyridine-3-carbohydrazide] | 0.03 (≈ 0.107 µM) | 0.44 (≈ 1.58 µM) | 0.1 (≈ 0.358 µM) | – | – | – |
| COc1ncc(NNC(=O)c2cc(-c3ccc(C(F)(F)F)cc3)c(=O)n(C)c2)cc1F [Example 39, N′-(5-fluoro-6-methoxypyridine-3-yl)-1-methyl-6-oxo-5-(4-(trifluoromethyl)phenyl)-1,6-dihydropyridine-3-carbohydrazide] | 0.04 (≈ 0.0917 µM) | 0.7 (≈ 1.6 µM) | 0.2 (≈ 0.458 µM) | – | – | – |
| O=C(NNc1ccc(F)cc1F)c1ccc(=O)n(Cc2ccc(C(F)(F)F)nc2)c1 [Example 54, N′-(2,4-difluorophenyl)-6-oxo-1-((6-(trifluoromethyl)pyridine-3-yl)methyl)-1,6-dihydropyridine-3-carbohydrazide] | 0.08 (≈ 0.189 µM) | 0.7 (≈ 1.65 µM) | – | – | – | – |
| CC[C@H](C)C[C@H](C)CCCCCCCCC(=O)N[C@H]1C[C@@H](O)[C@@H](NCCN)NC(=O)[C@@H]2[C@@H](O)CCN2C(=O)[C@H]([C@H](O)CCN)NC(=O)[C@H]([C@H](O)[C@@H](O)c2ccc(O)cc2)NC(=O)[C@@H]2C[C@@H](O)CN2C(=O)[C@H]([C@@H](C)O)NC1=O [caspofungin, reference compound] | – | – | – | 0.3 | 4 | 0.25 |
| OC(Cn1cncn1)(Cn1cncn1)c1ccc(F)cc1F [fluconazole, reference compound] | 0.25 (≈ 0.816 µM) | > 32 | > 32 | – | – | – |

Now from value to compound, other results behind:

| MIC80 (Candida albicans [2]) [µg/mL] | MIC50 (Aspergillus fumigatus) [µg/mL] | SMILES | MFC (Candida albicans [1]) [µg/mL] | Aspergillus fumigatus MIC50 (Aspergillus fumigatus) [µg/mL] | Candida albicans MFC (Candida albicans [1]) [µg/mL] | Candida albicans MIC80 (Candida albicans [2]) [µg/mL] |
| --- | --- | --- | --- | --- | --- | --- |
| 0.03 (≈ 0.103 µM) | 0.5 (≈ 1.71 µM) | COc1ncc(NNC(=O)c2ccc(=O)n(C)c2)cc1F [Example 21, N′-(5-fluoro-6-methoxypyridine-3-yl)-1-methyl-6-oxo-1,6-dihydropyridine-3-carbohydrazide] | 0.1 (≈ 0.342 µM) | – | – | – |
| 0.04 (≈ 0.104 µM) | 0.3 (≈ 0.776 µM) | COc1ncc(NNC(=O)c2cc(-c3ccc(F)cc3)c(=O)n(C)c2)cc1F [Example 37, N′-(5-fluoro-6-methoxypyridine-3-yl)-5-(4-fluorophenyl)-1-methyl-6-oxo-1,6-dihydropyridine-3-carbohydrazide] | 0.1 (≈ 0.259 µM) | – | – | – |
| 0.02 (≈ 0.0497 µM) | 0.3 (≈ 0.745 µM) | COc1ncc(NNC(=O)c2cc(-c3ccc(Cl)cc3)c(=O)n(C)c2)cc1F [Example 38, 5-(4-chlorophenyl)-N′-(5-fluoro-6-methoxypyridine-3-yl)-1-methyl-6-oxo-1,6-dihydropyridine-3-carbohydrazide] | 0.1 (≈ 0.248 µM) | – | – | – |
| 0.04 (≈ 0.102 µM) | – | COc1ncc(NNC(=O)c2cc(-c3ccc(C#N)cc3)c(=O)n(C)c2)cc1F [Example 40, 5-(4-cyanophenyl)-N′-(5-fluoro-6-methoxypyridine-3-yl)-1-methyl-6-oxo-1,6-dihydropyridine-3-carbohydrazide] | 0.2 (≈ 0.508 µM) | – | – | – |
